In US9987282B2, “Small molecule inhibitors of influenza A RNA-dependent RNA polymerase” (Nant Holdings IP, LLC, priority 2011, dated 2018):

Key:
[1] = tested on: cell death-activated reporter construct; test: Counter screen using a cell death-activated reporter construct (constitutive gene expression); conditions: for observed toxicity or efficacy in antiviral and counterscreen assays: antiviral reporter assay and counterscreen, tested up to 50 uM
[2] = tested on: influenza A/Puerto Rico/8/34 (H1N1) virus; test: In vitro viral propagation in MDCK cells, read by chicken red blood cell hemagglutination assay; type: cell-based; conditions: MDCK cells pre-incubated with compound; supernatants after 18-20 hour incubation
[3] = tested on: influenza A/WS/1933 (H1N1); test: In vitro viral propagation in MDCK cells, read by hemagglutination assay; type: cell-based; conditions: in vitro infection
[4] = tested on: H3N2 serotype A/Aichi/2/68; test: as above; type: cell-based, influenza A/Aichi/2/68 (H3N2); conditions: in vitro infection
influenza A = type: cell-based
[5] = tested on: influenza A/Puerto Rico/8/34; test: In vivo survival study in infected Balb/C mice; conditions: day 7 post-infection, 2×LD50 challenge
Method: In Vivo Survival Studies: Groups of 5 Balb/C mice ([…]) were weighed prior to the start of study and injected intravenously at the base of the tail with formulations containing A0435 at doses of 3.17, 1, or 0 mg/kg in phosphate buffered saline containing 3% w/v mouse serum albumin. Four hours later, these mice were challenged intranasally with 2×LD50 of influenza A/Puerto Rico/8/34 under anesthesia. Identical doses of A0435 were administered 24 and 48 hours after the initial dose administration and animal weights were monitored daily. Surviving animals were defined as those who maintained 70% or more of their starting weight.

[6] = tested on: liver-derived HepG2 cells
[7] = tested on: primary renal proximal tubule epithelial cells (RPTEC)
[8] = target: influenza A RNA-dependent RNA polymerase (RdRP) (Influenza A virus, UniProt P03428+P03431+P03433)

SMILES	observed toxicity or efficacy in antiviral and counterscreen assays [1]	further results
CCc1c(C)nc2cc(-c3cc(C)on3)nn2c1NCCc1ccccn1 [A0445, 6-ethyl-5-methyl-2-(5-methylisoxazol-3-yl)-N-(2-(pyridin-2-yl)ethyl)pyrazolo[1,5-a]pyrimidin-7-amine]	>50 µM (no observed toxicity or efficacy in either assay tested)	–
Cc1ccc(-c2cc3nc4c(c(NCCc5ccccn5)n3n2)CCC4)cc1 [A0437, N-(2-(pyridin-2-yl)ethyl)-2-p-tolyl-6,7-dihydro-5H-cyclopenta[d]pyrazolo[1,5-a]pyrimidin-8-amine]	>50 µM (no observed toxicity or efficacy in either assay tested)	–
Cc1cc(NCC(O)c2cccc(O)c2)n2nc(-c3cccc(F)c3)cc2n1 (centres unmarked) [A0532, 3-(2-(2-(3-fluorophenyl)-5-methylpyrazolo[1,5-a]pyrimidin-7-ylamino)-1-hydroxyethyl)phenol]	>50 µM (no observed toxicity or efficacy in either assay tested)	–
COc1ccc(-c2cc3nc(C)c(C)c(N4CCCC4)n3n2)cc1OC [A0443, 2-(3,4-dimethoxyphenyl)-5,6-dimethyl-7-(pyrrolidin-1-yl)pyrazolo[1,5-a]pyrimidine]	>50 µM (no observed toxicity or efficacy in either assay tested)	–
Clc1ccc(-c2cc3nc4c(c(NCCc5ccccn5)n3n2)CCCC4)cc1 [A0442, 2-(4-chlorophenyl)-N-(2-(pyridin-2-yl)ethyl)-5,6,7,8-tetrahydropyrazolo[5,1-b]quinazolin-9-amine]	>10 uM (toxic to both antiviral and counterscreen at 50 uM)	–
CCOc1ccc(-c2cc3c(SCc4cccc(C)c4)nccn3n2)cc1 [A0552, 2-(4-ethoxyphenyl)-4-(3-methylbenzylthio)pyrazolo [1,5-a]pyrazine]	>50 µM (no observed toxicity or efficacy in either assay tested)	–
COc1ccc(-c2c(C)nn3c(NCC(C)c4ccccc4)cc(C)nc23)cc1OC (centres unmarked) [A0549, 3-(3,4-dimethoxyphenyl)-2,5-dimethyl-N-(2-phenylpropyl)pyrazolo[1,5-a]pyrimidin-7-amine]	>50 µM (no observed toxicity or efficacy in either assay tested)	–
COc1ccc(-c2cc3nc4c(c(NCc5ccccc5F)n3n2)CCCC4)cc1 [A0529, N-(2-fluorobenzyl)-2-(4-methoxyphenyl)-5,6,7,8-tetrahydropyrazolo[5,1-b]quinazolin-9-amine]	>50 µM (no observed toxicity or efficacy in either assay tested)	–
Fc1ccc(-c2cc3nc4c(c(NCCc5ccccn5)n3n2)CCCC4)cc1 [A0441, 2-(4-fluorophenyl)-N-(2-(pyridin-2-yl)ethyl)-5,6,7,8-tetrahydropyrazolo[5,1-b]quinazolin-9-amine]	>10 uM (toxic to both antiviral and counterscreen at 50 uM)	–
COc1ccc(-c2cc3nc(C)cc(NCc4ccccc4)n3n2)cc1 [A0548, N-benzyl-2-(4-methoxyphenyl)-5-methylpyrazolo[1,5-a]pyrimidin-7-amine]	>50 µM (no observed toxicity or efficacy in either assay tested)	–
Cc1cc(NC(CO)C(O)c2ccccc2)n2nc(-c3cccc(F)c3)cc2n1 (centres unmarked) [A0531, 2-(2-(3-fluorophenyl)-5-methylpyrazolo[1,5-a]pyrimidin-7-ylamino)-1-phenylpropane-1,3-diol]	>50 µM (no observed toxicity or efficacy in either assay tested)	–
COc1ccc(-c2c(C)nn3c(N4CCc5ccccc5C4)cc(C)nc23)cc1OC [A0550, 2-(3-(3,4-dimethoxyphenyl)-2,5-dimethylpyrazolo[1,5-a]pyrimidin-7-yl)-1,2,3,4-tetrahydroisoquinoline]	>50 µM (no observed toxicity or efficacy in either assay tested)	–
CCc1c(C)nc2cc(-c3ccc(OC)c(OC)c3)nn2c1NCc1cc(OC)ccc1OC [A0526, N-(2,5-dimethoxybenzyl)-2-(3,4-dimethoxyphenyl)-6-ethyl-5-methylpyrazolo[1,5-a]pyrimidin-7-amine]	>50 µM (no observed toxicity or efficacy in either assay tested)	–
COc1ccc(-c2cc3c(=O)[nH]nc(SCc4ccc5c(c4)OCO5)n3n2)cc1OC [A0551, 7-(benzo[d][1,3]dioxol-5-ylmethylthio)-2-(3,4-dimethoxyphenyl)pyrazolo [1,5-d][1,2,4]triazin-4(5H)-one]	>50 µM (no observed toxicity or efficacy in either assay tested)	–
CCc1c(C)nc2cc(-c3ccc(F)cc3)nn2c1NCCc1ccccn1 [A0436, 6-ethyl-2-(4-fluorophenyl)-5-methyl-N-(2-(pyridin-2-yl)ethyl)pyrazolo[1,5-a]pyrimidin-7-amine]	>10 uM (toxic to both antiviral and counterscreen at 50 uM)	–
COc1cc(OC)cc(-c2cc3nc(C)cc(NCC(C)c4ccccc4)n3n2)c1 (centres unmarked) [A0525, 2-(3,5-dimethoxyphenyl)-5-methyl-N-(2-phenylpropyl)pyrazolo[1,5-a]pyrimidin-7-amine]	>50 µM (no observed toxicity or efficacy in either assay tested)	–
CCc1c(C)nc2cc(-c3cc(OC)cc(OC)c3)nn2c1NCCc1ccccc1 [A0527, 2-(3,5-dimethoxyphenyl)-6-ethyl-5-methyl-N-phenethylpyrazolo[1,5-a]pyrimidin-7-amine]	>50 µM (no observed toxicity or efficacy in either assay tested)	–
CCc1c(C)nc2cc(-c3ccc(OC)c(OC)c3)nn2c1NCCc1ccc(F)cc1 [A0440, 2-(3,4-dimethoxyphenyl)-6-ethyl-N-(4-fluorophenethyl)-5-methylpyrazolo[1,5-a]pyrimidin-7-amine]	>50 µM (no observed toxicity or efficacy in either assay tested)	–
COc1ccc(-c2cc3c(=O)[nH]nc(SCc4ccccc4Cl)n3n2)cc1OC [A0553, 7-(2-chlorobenzylthio)-2-(3,4-dimethoxyphenyl)pyrazolo [1,5-d][1,2,4]triazin-4(5H)-one]	>50 µM (no observed toxicity or efficacy in either assay tested)	–
CCc1c(C)nc2cc(-c3ccc(OC)c(OC)c3)nn2c1NCCc1ccccn1 [A0435]	–	concentration showing significant antiviral activity (hemagglutination assay) [2]: > 4 µM; inhibition of virus [3]: significantly inhibited; inhibition of virus [4]: significantly inhibited; cytopathic effects in infected cells (influenza A): little to no signs of the cytopathic effects; animals surviving infection ([5]; 1 mg/kg intravenous): 2/5; animals surviving infection ([5]; 3.17 mg/kg intravenous): 3/5; tolerability in cells [6]: well-tolerated; tolerability in cells [7]: well-tolerated; inhibitory impact on the level of constitutive gene expression in the counter-screen assay ([1]; dose titration): no visible inhibitory impact
COc1ccc(-c2cc3nc4c(c(NCCc5cccnc5)n3n2)CCC4)cc1OC [A0444, 2-(3,4-dimethoxyphenyl)-N-(2-(pyridin-3-yl)ethyl)-6,7-dihydro-5H-cyclopenta[d]pyrazolo[1,5-a]pyrimidin-8-amine]	>10 uM (toxic to both antiviral and counterscreen at 50 uM)	–
CCc1c(C)nc2cc(-c3ccc(OC)c(OC)c3)nn2c1NCCc1ccccc1C [A0439]	–	concentration showing significant antiviral activity (hemagglutination assay) [2]: > 7.5 µM; toxicity in the reporter assay [8]: increased toxicity at higher doses due to precipitation
COc1ccc(-c2cc3nc(C)cc(NCc4ccc5c(c4)OCO5)n3n2)cc1 [A0530, N-(benzo[d][1,3]dioxol-5-ylmethyl)-2-(4-methoxyphenyl)-5-methylpyrazolo[1,5-a]pyrimidin-7-amine]	>50 µM (no observed toxicity or efficacy in either assay tested)	–
COc1ccc(-c2cc3nc(-c4ccccc4)cc(NCc4ccccc4C)n3n2)cc1OC [A0528, 2-(3,4-dimethoxyphenyl)-N-(2-methylbenzyl)-5-phenylpyrazolo[1,5-a]pyrimidin-7-amine]	>50 µM (no observed toxicity or efficacy in either assay tested)	–
CCc1c(C)nc2cc(-c3ccc(OC)c(OC)c3)nn2c1NCCc1ccc(OC)c(OC)c1 [A0438, N-(3,4-dimethoxyphenethyl)-2-(3,4-dimethoxyphenyl)-6-ethyl-5-methylpyrazolo[1,5-a]pyrimidin-7-amine]	>10 uM (toxic to both antiviral and counterscreen at 50 uM)	–
COc1ccc(-c2cc3nccc(NCc4ccccc4OC)n3n2)cc1 [A0547, N-(2-methoxybenzyl)-2-(4-methoxyphenyl)pyrazolo[1,5-a]pyrimidin-7-amine]	>50 µM (no observed toxicity or efficacy in either assay tested)	–
